Test systems include U251 CNS; SW-620 colon; HCT-15 colon; SK-MEL-2 melanoma; RXF 393 renal; 786-0 renal; HCC-2998 colon; SF-268 CNS; RPMI-8226 leukemia; OVCAR-8 ovarian.
What all share (test): NCI tumour cell line growth inhibition, 48 h

For nine molecules, TGI and GI50 results are on record in PubChem BioAssay (NCI).

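Interpolation was linear, between the two tested concentrations surrounding the appropriate level; five concentrations were tested over 48 hours in 96-well plates. Abbreviation: GI50, concentration required for 50% inhibition of growth. TGI: concentration producing complete growth inhibition.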

Take `CC(=O)Nc1ccc(C2=N/C(=C\c3ccc(Cl)cc3)C(=O)O2)cc1`: the TGI in the test on U251 CNS was > 100 µM; with SW-620 colon, 22.8 µM; with HCT-15 colon it was 37.1 µM; in the test with SK-MEL-2 melanoma, > 100 µM; in the test on RXF 393 renal it was > 100 µM; in the test with 786-0 renal it was 51.6 µM. Moreover, the TGI is 38.5 µM in the test with HCC-2998 colon, 90.9 µM in the test with SF-268 CNS, > 100 µM in the test with RPMI-8226 leukemia and > 100 µM with OVCAR-8 ovarian.
For the molecule `CCOc1ccc2c(c1)C(=O)c1c-2n(CCCN=[N+]=[N-])c(=O)c2cc([N+](=O)[O-])ccc12`, the GI50 was 3.57 µM in the test with U251 CNS; 3.42 µM in the test with SW-620 colon; 16.9 µM in the test on HCT-15 colon; 14.4 µM in the test with SK-MEL-2 melanoma; 28 µM in the test with RXF 393 renal; 4.1 µM in the test with 786-0 renal. In addition, the GI50 was 19.1 µM with HCC-2998 colon, 1.42 µM with SF-268 CNS, 2.25 µM with RPMI-8226 leukemia and 11.9 µM in the test on OVCAR-8 ovarian. For the same molecule, the TGI with U251 CNS is 37.7 µM; in the test on SW-620 colon it was > 100 µM; with HCT-15 colon it was > 100 µM; with SK-MEL-2 melanoma, 38.2 µM; with RXF 393 renal it was > 100 µM; with 786-0 renal it was 22.7 µM. In addition, the TGI is > 100 µM in the test with HCC-2998 colon, 38.4 µM in the test on SF-268 CNS, 31 µM in the test with RPMI-8226 leukemia and > 100 µM in the test on OVCAR-8 ovarian.
For the molecule `Cc1[nH]nc(C(=O)N/N=C/c2ccccc2Cl)c1N=NN(C)C`, the TGI with U251 CNS, in the test on SW-620 colon, in the test on HCT-15 colon, with SK-MEL-2 melanoma, in the test on RXF 393 renal and in the test with 786-0 renal was > 100 µM throughout. For the same molecule, the TGI in the test with HCC-2998 colon, in the test on SF-268 CNS, with RPMI-8226 leukemia and in the test on OVCAR-8 ovarian was > 100 µM in each case.
As to `C[C@]12CC[C@H]3[C@@H](CC[C@]4(O)C[C@@H](O[C@@H]5O[C@H](CO)[C@@H](O[C@@H]6OC[C@@H](O)[C@H](O)[C@H]6O)[C@H](O)[C@H]5O)CC[C@]34C=O)[C@@]1(O)CC[C@@H]2C1=CC(=O)OC1`, the GI50 with U251 CNS was 1.68 µM; with SW-620 colon, 1.35 µM; in the test on HCT-15 colon, 1.6 µM; in the test with SK-MEL-2 melanoma it was 1.49 µM; in the test with RXF 393 renal, 1.25 µM; in the test with 786-0 renal, 1.42 µM. The GI50 in the test on HCC-2998 colon is 3.09 µM; in the test with SF-268 CNS, 0.739 µM; in the test on RPMI-8226 leukemia, 1.9 µM; in the test on OVCAR-8 ovarian it was 1.62 µM. For the same molecule, the TGI in the test on U251 CNS came to 5.67 µM; in the test with SW-620 colon, 4.67 µM; with HCT-15 colon, 5.12 µM; with SK-MEL-2 melanoma it was 4.44 µM; in the test on RXF 393 renal it was 3.11 µM; in the test with 786-0 renal, 5.19 µM. Besides, the TGI is 21.3 µM in the test with HCC-2998 colon, 2.42 µM in the test on SF-268 CNS, 14.6 µM in the test on RPMI-8226 leukemia and 5.56 µM in the test with OVCAR-8 ovarian.
Turning to `Cc1c(Cl)c(C)c(Cl)c(O)c1Cl`, the TGI was 37.7 µM in the test with U251 CNS; > 100 µM in the test with SW-620 colon; 75.6 µM with HCT-15 colon; 30.3 µM with SK-MEL-2 melanoma; > 100 µM with RXF 393 renal; > 100 µM in the test with 786-0 renal. In addition, the TGI is 50.6 µM in the test on HCC-2998 colon, > 100 µM in the test on SF-268 CNS, 68.3 µM in the test with RPMI-8226 leukemia and > 100 µM in the test with OVCAR-8 ovarian.
With `COc1ncc(-c2ccc3nccc(C#CCCCCC(=O)NO)c3c2)cc1NS(=O)(=O)c1ccc(F)cc1F`, the GI50 in the test on U251 CNS was 0.128 µM; in the test with SW-620 colon, 0.158 µM; in the test on HCT-15 colon, 0.15 µM; in the test on SK-MEL-2 melanoma, 0.106 µM; in the test on RXF 393 renal it was 0.0466 µM; in the test with 786-0 renal it was 0.0819 µM. Also, the GI50 is 0.0758 µM with HCC-2998 colon, 0.121 µM with SF-268 CNS, 1.02 µM with RPMI-8226 leukemia and 0.131 µM with OVCAR-8 ovarian. Moreover, the TGI in the test with U251 CNS worked out at 2.67 µM; in the test with SW-620 colon, 3.9 µM; with HCT-15 colon it was 13 µM; with SK-MEL-2 melanoma it was 1.77 µM; with RXF 393 renal, 0.75 µM; in the test with 786-0 renal, 3.68 µM. Also, the TGI in the test on HCC-2998 colon stood at 4.26 µM; in the test with SF-268 CNS, 3.77 µM; in the test on RPMI-8226 leukemia, 4.79 µM; in the test with OVCAR-8 ovarian it was 4.08 µM.
Consider `CC/C(=C(/c1ccc(OCCN(C)C)cc1)c1ccc(OC(=O)CCCCCCCCC(=O)c2c(C)[nH]c(/C=C3\N=C(c4ccc[nH]4)C=C3OC)c2C)cc1)c1ccccc1`, for which the GI50 in the test with U251 CNS is 4.2 µM; in the test with SW-620 colon, 3.72 µM; in the test on HCT-15 colon, 5.12 µM; in the test on SK-MEL-2 melanoma it was 30.7 µM; in the test on RXF 393 renal, 13.9 µM; in the test with 786-0 renal it was 5.19 µM. Further, the GI50 with HCC-2998 colon was > 100 µM; with SF-268 CNS it was 6.63 µM; in the test on RPMI-8226 leukemia, 3.75 µM; in the test on OVCAR-8 ovarian it was 9.06 µM. Further, the TGI in the test with U251 CNS was > 100 µM; with SW-620 colon, 14 µM; in the test on HCT-15 colon, 97.8 µM; in the test on SK-MEL-2 melanoma it was > 100 µM; in the test with RXF 393 renal, > 100 µM; in the test on 786-0 renal it was > 100 µM. In addition, the TGI in the test with HCC-2998 colon, in the test on SF-268 CNS, with RPMI-8226 leukemia and in the test on OVCAR-8 ovarian was > 100 µM each time.
For the molecule `N#Cc1cccc(C2C(=O)c3ccc(C(=O)c4ccc5c(c4)C(=O)N(c4ccc(Oc6ccc(N7C(=O)c8ccc(C(=O)c9ccc%10c(c9)C(=O)N(c9cccc(C#N)c9)C%10=O)cc8C7=O)cc6)cc4)C5=O)cc3C2=O)c1` (configuration not stated), the TGI with U251 CNS, in the test with SW-620 colon, with HCT-15 colon, in the test with SK-MEL-2 melanoma, in the test on RXF 393 renal and with 786-0 renal was > 100 µM in each case. Moreover, the TGI in the test with HCC-2998 colon, in the test with SF-268 CNS, in the test on RPMI-8226 leukemia and in the test with OVCAR-8 ovarian was > 100 µM throughout.
As to `Nc1nc(N)c2c(n1)CCC(S(=O)(=O)c1ccc3ccccc3c1)C2` (configuration not stated), the TGI in the test with U251 CNS is > 100 µM; in the test on SW-620 colon it was > 100 µM; with HCT-15 colon, > 100 µM; in the test on SK-MEL-2 melanoma, > 100 µM; in the test with RXF 393 renal, 57.8 µM; in the test with 786-0 renal it was > 100 µM. For the same molecule, the TGI in the test on HCC-2998 colon was 26.7 µM; with SF-268 CNS, > 100 µM; with RPMI-8226 leukemia, > 84.4 µM; with OVCAR-8 ovarian, > 100 µM. Further, the values for the GI50 in the test on SK-MEL-2 melanoma and in the test with RXF 393 renal were 9.79 µM and 2.53 µM, respectively.
